Here are results for 7 compounds from US9505771B2, “Stable micronised monoclin form of asenapine maleate and its synthesis” (Laboratories Lesvi S.L., priority 2011, dated 2016).

Data set [1] is described as follows: PXRD determination of orthorhombic form content in the micronised product. The data set is classed as physicochemical. The settings on record: for orthorhombic form contained in the micronised product, as determined by PXRD / polymorphic purity (monoclinic form) of the micronised product: after micronisation; for % of orthorhombic form in the micronised product: directly after micronisation, before storage. How it is done:
(§1) Powder X-Ray Diffraction (PXRD) patterns were acquired on a D8 Advance Series 2Theta/Theta powder diffraction system using CuKα-radiation in transmission geometry. The system was equipped with a VANTEC-1 single photon counting PSD, a Germanium monochromator, a ninety positions auto changer sample stage, fixed divergence slits and radial soller. Programs used: Data collection with DIFFRAC plus XRD Commander V.2.5.1 and evaluation with EVA V.12.0. The samples were prepared and placed in standard sample holders using two foils of polyacetate. Five hours scans in a range from 8° to 20° in 2θ were carried out.

Data set [2] is described as follows: Stability assays of the micronised samples (polymorphic stability on storage, PXRD). The data set is classed as physicochemical. The settings on record: transparent and opaque vacuum containers; for % of orthorhombic form after 1 months / % of orthorhombic form after 3 months: 40° C.-75% RH; for % of orthorhombic form after 2 months: 25° C.-60% RH. As for the experimental part:
During the storage period of 1 month, 2 months or 3 months, a temperature of 25° C. and a relative humidity of 60%, or a temperature of 40° C. and a relative humidity of 75%, may be used. For such tests, the samples may be placed into either or both of transparent and opaque vacuum containers. […] The monoclinic and orthorhombic forms of asenapine maleate were characterised, and thus distinguished, by the powder X-ray diffraction pattern (PXRD) of the asenapine maleate, as described in EP 1710245.
as §1
Stability assays of the new stable monoclinic form of asenapine maleate obtained as described above were performed after 1 month, 2 months and 3 months. The samples were placed into two different types of containers, transparent and opaque vacuum containers. The stability tests were carried out at two different storage conditions, 25° C. and 60% relative humidity (RH), and at 40° C. and 75% RH.

Structures can show the parent of a compound that is named as a salt. Bounds are passed on as bounds.

As to `CN1C[C@@H]2c3ccccc3Oc3ccc(Cl)cc3[C@H]2C1` (racemic) [Example 2, asenapine maleate], in data set [1], the “orthorhombic form contained in the micronised product, as determined by PXRD” value (“orthorhombic form contained” for short) was “about 5 % by weight” and the “% of orthorhombic form in the micronised product” value is given as 5%. Moreover, in data set [2], the “% of orthorhombic form after 1 months” value was found to be 9% and the “% of orthorhombic form after 3 months” value is on record as 13%.
In the case of `CN1C[C@@H]2c3ccccc3Oc3ccc(Cl)cc3[C@H]2C1` (racemic) [Example 4, asenapine maleate], in data set [1], the “orthorhombic form contained” value is on record as “less than 1 % by weight”; the “polymorphic purity (monoclinic form) of the micronised product” value (from here on “polymorphic purity (monoclinic form)”) was more than 99 % by weight; the “% of orthorhombic form in the micronised product” value was less than 1%.
For `CN1C[C@@H]2c3ccccc3Oc3ccc(Cl)cc3[C@H]2C1` (racemic) [Example 2.1, asenapine maleate], the “% of orthorhombic form in the micronised product” value in data set [1] was less than 1%. In data set [2], the “% of orthorhombic form after 2 months” value turned out to be 5%, the “% of orthorhombic form after 1 months” value came to 8% and the “% of orthorhombic form after 3 months” value was determined as 12%.
Take `CN1C[C@@H]2c3ccccc3Oc3ccc(Cl)cc3[C@H]2C1` (racemic) [Example 6, asenapine maleate]: in data set [1], the “orthorhombic form contained” value is recorded as “less than 1 % by weight” and the “polymorphic purity (monoclinic form)” value was more than 99 % by weight.
Take `CN1C[C@@H]2c3ccccc3Oc3ccc(Cl)cc3[C@H]2C1` (racemic) [Example 5, asenapine maleate]: in data set [1], the “orthorhombic form contained” value is “less than 1 % by weight”; the “polymorphic purity (monoclinic form)” value is given as more than 99 % by weight; the “% of orthorhombic form in the micronised product” value was less than 1%.
For the compound `CN1C[C@@H]2c3ccccc3Oc3ccc(Cl)cc3[C@H]2C1` (racemic) [Example 3, asenapine maleate], in data set [1], the “orthorhombic form contained” value is given as “about 3 % by weight” and the “% of orthorhombic form in the micronised product” value was 3%. Further, in data set [2], the “% of orthorhombic form after 1 months” value turned out to be 5% and the “% of orthorhombic form after 3 months” value amounted to 8%.
Take `CN1C[C@@H]2c3ccccc3Oc3ccc(Cl)cc3[C@H]2C1` (racemic) [Example 3.1, asenapine maleate]: the “% of orthorhombic form in the micronised product” value in data set [1] was less than 1%. In addition, in data set [2], the “% of orthorhombic form after 2 months” value is given as 3%, the “% of orthorhombic form after 1 months” value was found to be 4% and the “% of orthorhombic form after 3 months” value was found to be 7%.
